Measured values taken from patent US20150190388A1, “PHARMACEUTICAL COMPOSITION OF MOXIFLOXACIN HYDROCHLORIDE AND PREPARATION METHOD” (RIVOPHARM SA, priority 2012, published 2015).
Entries after “also recorded” stand apart in the source; their conditions may differ. Counter-ions that a name gives are not always drawn.

Assay: Stability of the anhydrous moxifloxacin hydrochloride to humidity and drying (XRPD, water content)
Assay type: physicochemical
Source text: The water contents of the moxifloxacin hydrochloride and of the excipients can be determined using any one of the analytical methods described in the prior art. For example, one may use of the Karl Fisher titration method as described in the European Pharmacopoeia Chapter 2.5.12 (Ph. Eur. 2.5.12) using the Metrohm 7012 KF Titrino® titrator.
The anhydrous moxifloxacin hydrochloride is exposed for several hours to a relative humidity of approximately 40%, which causes an increase in its water content. At the end of the exposure, the water content of the active ingredient is approximately 4% by weight. […] Such results illustrate the low stability of the anhydrous moxifloxacin hydrochloride in the presence of a humidity level of 40%. The conversion of the anhydrous moxifloxacin hydrochloride into a hydrate form becomes significant for a water content above 2%.

COc1c(N2C[C@@H]3CCCN[C@@H]3C2)c(F)cc2c(=O)c(C(=O)O)cn(C3CC3)c12 [anhydrous moxifloxacin hydrochloride, 1-cyclopropyl-6-fluoro-1,4-dihydro-8-methoxy-7-[(4aS,7aS)-octahydro-6H-pyrrolo[3,4-b]pyridin-6-yl]-4-oxo-3-quinolinecarbolic acid]
water content above which conversion of the anhydrous form into a hydrate form becomes significant: above 2% | water content after drying of the hydrate form obtained (drying for several hours): less than 1 % by weight | polymorphic form by XRPD after drying of the hydrate form (drying for several hours, FIG. 2 curve 2): reconvert the hydrate formed into an anhydrous polymorphic form; also recorded: conversion into the starting anhydrous form | water content at the end of the exposure (exposed for several hours to a relative humidity of approximately 40%): approximately 4 % by weight | polymorphic form by XRPD after humidity exposure (several hours at relative humidity of approximately 40%, FIG. 2 curve 3): has a tendency to convert into hydrate; also recorded: converted into a hydrate polymorphic form
